Structures can show the parent of a compound that is named as a salt.
Experiment: UV-VIS absorption spectra (optical property test)
Assay type: physicochemical
Conditions: 10 μM, DMSO solution; for Absorbance × 10^4: at maximum absorption peak
Procedure: The UV-VIS absorption spectra of the compounds (10 μM, DMSO solution) were detected using Shimadzu UV2600 spectrophotometer, and the maximum absorption peak and absorbance of each compound were obtained.

Compound	Absorbance × 10^4	Absorption peak
CC1(C)C(/C=C/C2=C(Cl)C(=C/C=C3/N(CCCCCC(=O)O)c4ccccc4C3(C)C)/CCC2)=[N+](CCO)c2ccccc21 [Example 49, 2-((E)-2-((E)-3-(2-((E)-1-(5-carboxypentyl)-3,3-dimethylindolin-2-ylidene)ethenyl)-2-chlorocyclohex-1-en-1-yl)ethenyl)-1-(2-hydroxyethyl)-3,3-dimethyl-3H-indol-1-ium Chloride]	2.3	–
CC[N+]1=C(/C=C/C2=C(Br)C(=C/C=C3/N(CCCCCC(=O)Oc4ccccc4)c4ccccc4C3(C)C)/CCC2)C(C)(C)c2ccccc21 [Example 54, 2-((E)-2-((E)-2-bromo-3-(2-((E)-3,3-dimethyl-1-(6-oxo-6-phenoxyhexyl)indolin-2-ylidene)ethenyl)cyclohex-1-en-1-yl)ethenyl)-1-ethyl-3,3-dimethyl-3H-indol-1-ium Formate]	2.57	–
CC[N+]1=C(/C=C/C2=C(Cl)C(=C/C=C3/N(CCOCCCC(=O)Oc4ccccc4)c4ccccc4C3(C)C)/CCC2)C(C)(C)c2ccccc21 [Example 36, 2-((E)-2-((E)-2-chloro-3-(2-((E)-3,3-dimethyl-1-(2-(4-oxo-4-phenoxybutoxy)ethyl)indolin-2-ylidene)ethenyl)cyclohex-1-en-1-yl)ethenyl)-1-ethyl-3,3-dimethyl-3H-indol-1-ium 2,2,2-trifluoroacetate]	3.368	795.5 nm
CC[N+]1=C(/C=C/C2=C(OC)C(=C/C=C3/N(CCCCCC(=O)Oc4ccccc4)c4ccccc4C3(C)C)/CCC2)C(C)(C)c2ccccc21 [Example 104]	2.054	781.5 nm
CN(C)C1CC(/C=C/C2=[N+](C)c3ccccc3C2(C)C)=C(Cl)C(=C/C=C2/N(CCCCCC(=O)Oc3ccccc3)c3ccccc3C2(C)C)/C1 (stereo not drawn) [Example 50, 2-((E)-2-((E)-2-chloro-3-(2-((E)-3,3-dimethyl-1-(6-oxo-6-phenoxyhexyl)indolin-2-ylidene)ethenyl)-5-(dimethylamino)cyclohex-1-en-1-yl)ethenyl)-1,3,3-trimethyl-3H-indol-1-ium Formate]	1.97	–
CC1(C)C(/C=C/C2=C(Cl)C(=C/C=C3/N(CCCCCC(=O)Nc4ccccc4)c4ccccc4C3(C)C)/CCC2)=[N+](CCCCS(=O)(=O)O)c2ccccc21 [Example 26, 2-((E)-2-((E)-2-chloro-3-(2-((E)-3,3-dimethyl-1l-(6-oxo-6-(phenylamino)hexyl)indolin-2-ylidene)ethenyl)cyclohex-1-en-1-yl)ethenyl)-3,3-dimethyl-1-(4-sulfonylbutyl)-3H-indo-1-ium Formate]	2.44	797.5 nm
CC[N+]1=C(/C=C/C2=C(Sc3ccccc3)C(=C/C=C3/N(CCCCCC(=O)Oc4ccccc4)c4ccccc4C3(C)C)/CCC2)C(C)(C)c2ccccc21.[Cl-] [Example 106]	1.997	807.5 nm
5-carboxy-2-((E)-2-((E)-2-chloro-3-(2-((E)-3,3-dimethyl-1-(6-oxo-6-phenoxyhexyl)indolin-2-ylidene)ethenyl)cyclohex-1-en-1-yl)ethenyl)-1,3,3-trimethyl-3H-indol-1-ium 2,2,2-trifluoroacetate [Example 120]	1.73	–
CC1(C)C(/C=C/C2=C(Cl)C(=C/C=C3/N(CCCCCC(=O)Oc4ccccc4)c4ccccc4C3(C)C)/CCC2)=[N+](CCCCCC(=O)O)c2ccccc21 [Example 11]	2.27	796.5 nm
CC[N+]1=C(/C=C/C2=C(Cl)C(=C/C=C3/N(CCCCCC(=O)Oc4ccccc4)c4ccccc4C3(C)C)/CC2)C(C)(C)c2cc(S(=O)(=O)O)ccc21 [Example 22, 2-((E)-2-((E)-2-chloro-3-(2-((E)-3,3-dimethyl-1-(6-oxo-6-phenoxyhexyl)indolin-2-ylidene)ethenyl)cyclopent-1-en-1-yl)ethenyl)-1-ethyl-3,3-dimethyl-5-sulfonyl-3H-indol-1-ium Chloride]	1.97	827 nm
CC1(C)C(/C=C/C2=C(Cl)C(=C/C=C3/N(CCC(=O)O)c4ccccc4C3(C)C)/C[N+](C)(C)C2)=[N+](CCC(=O)O)c2ccccc21 [Example 17, 1-(2-carboxyethyl)-2-((E)-2-((E)-5-(2-((E)-1-(2-carboxyethyl)-3,3-dimethylindolin-2-ylidene)ethenyl)-4-chloro-1,1-dimethyl-1,2,5,6-tetrahydropyridin-1-ium-3-yl)ethenyl)-3,3-dimethyl-3H-indol-1-ium Ditrifluoroacetate]	0.88	766 nm
CC1(C)C(/C=C/C2=C(Cl)C(=C/C=C3/N(CCCCCC(=O)Nc4ccccc4)c4ccccc4C3(C)C)/CCC2)=[N+](CCCCCC(=O)O)c2ccccc21 [Example 27A, 1-(5-carboxypentyl)-2-((E)-2-((E)-2-chloro-3-(2-((E)-3,3-dimethyl-1-(6-oxo-6-(phenylamino)hexyl)indolin-2-ylidene)ethenyl)cyclohex-1-en-1-yl)ethenyl)-3,3-dimethyl-3H-indol-1-ium 2,2,2-trifluoroacetate]	2.29	796.5 nm
C[N+]1=C(/C=C/C2=C(Cl)C(=C/C=C3/N(CCOCCC(=O)Oc4ccccc4)c4ccccc4C3(C)C)/CCC2)C(C)(C)c2ccccc21 [Example 52, 2-((E)-2-((E)-2-chloro-3-(2-((E)-3,3-dimethyl-1-(2-(3-oxo-3-phenoxypropoxy)ethyl)indolin-2-ylidene)ethenyl)cyclohex-1-en-1-yl)ethenyl)-1,3,3-trimethyl-3H-indol-1-ium Chloride]	2.14	–
CC1(C)C(/C=C/C2=C(Oc3ccc(S(=O)(=O)O)cc3)C(=C/C=C3/N(CCCCCC(=O)Oc4ccccc4)c4ccccc4C3(C)C)/C[N+](C)(C)C2)=[N+](CCCCCC(=O)Oc2ccccc2)c2ccccc21 [Example 103]	2.483	757.5 nm
CC1(C)C(/C=C/C2=C(Cl)C(=C/C=C3/N(CCCCCC(=O)O)c4ccccc4C3(C)C)/CC2)=[N+](CCCCCC(=O)O)c2ccccc21 [Example 84, 1-(5-carboxypentyl)-2-((E)-2-((E)-3-(2-((E)-1-(5-carboxypentyl)-3,3-dimethylindolin-2-ylidene)ethenyl)-2-chlorocyclopent-1-en-1-yl)ethenyl)-3,3-dimethyl-3H-indol-1-ium Chloride]	2.41	–
CC1(C)C(/C=C/C2=C(Cl)C(=C/C=C3/N(CCCCCC(=O)O)c4ccccc4C3(C)C)/C[N+](C)(C)C2)=[N+](CCCCCC(=O)O)c2ccccc21 [Example 25]	2.265	767.5 nm
CCN1/C(=C/C=C2\CCCC(/C=C/C3=[N+](CC)c4ccccc4C3(C)C)=C2Sc2ccccc2)C(C)(C)c2ccccc21.[Cl-] [Example 108]	1.752	805.5 nm
2-((E)-2-((E)-2-chloro-3-(2-((E)-3,3-dimethyl-1-(6-oxo-6-(phenylamino)hexyl)indolin-2-ylidene)ethenyl)cyclohex-1-en-1-yl)ethenyl)-3,3-dimethyl-1-(6-oxo-6-(phenylamino) hexyl)-3H-indol-1-ium 2,2,2-trifluoroacetate [Example 27B]	2.117	797 nm
C[N+]1=C(/C=C/C2=C(Cl)C(=C/C=C3/N(CCOCCOCCOCc4ccccc4)c4ccccc4C3(C)C)/CCC2)C(C)(C)c2ccccc21 [Example 56, 2-((E)-2-((E)-3-(2-((E)-1-(2-(2-(2-(benzyloxy)ethoxy)ethoxy)ethyl)-3,3-dimethylindolin-2-ylidene)ethenyl)-2-chlorocyclohex-1-en-1-yl)ethenyl)-1,3,3-trimethyl-3H-indol-1-ium 2,2,2-trifluoroacetate]	1.85	–
CC1(C)C(/C=C/C2=C(Cl)C(=C/C=C3/N(CCCCCC(=O)O)c4ccccc4C3(C)C)/CCC2)=[N+](CCCCCC(=O)Oc2ccccc2)c2ccccc21 [Example 85A]	2.239	796.5 nm
C[N+]1=C(/C=C/C2=C(Cl)C(=C/C=C3/N(CCOCCOCCOCc4ccccc4)c4ccccc4C3(C)C)/CC2)C(C)(C)c2ccccc21 [Example 55, 2-((E)-2-((E)-3-(2-((E)-1-(2-(2-(2-(benzyloxy)ethoxy)ethoxy)ethyl)-3,3-dimethylindolin-2-ylidene)ethenyl)-2-chlorocyclopent-1-en-1-yl)ethenyl)-1,3,3-trimethyl-3H-indol-1-ium Formate]	3.48	–
5-carboxy-2-((E)-2-((E)-2-chloro-3-(2-((E)-3,3-dimethyl-1-(6-oxo-6-phenoxyhexyl)indolin-2-ylidene)ethenyl)cyclohex-1-en-1-yl)ethenyl)-1-ethyl-3,3-dimethyl-3H-indol-1-ium 2,2,2-trifluoroacetate [Example 118]	1.73	–
CC[N+]1=C(/C=C/C2=C(Cl)C(=C/C=C3/N(CCCCCC(=O)Oc4ccccc4)c4ccccc4C3(C)C)/C[N+](C)(C)C2)C(C)(C)c2ccccc21 [Example 28]	1.856	766 nm
CC[N+]1=C(/C=C/C2=C(Sc3ccccc3)C(=C/C=C3/N(CCCCCC(=O)Oc4ccccc4)c4ccccc4C3(C)C)/CC2)C(C)(C)c2ccccc21 [Example 101]	1.971	836.5 nm
C[n+]1cccc2c1N=C(/C=C/C1=C(Cl)C(=C/C=C3/N(CCCCCC(=O)Oc4ccccc4)c4ccccc4C3(C)C)/CCC1)C2(C)C [Example 53, 2-((E)-2-((E)-2-chloro-3-(2-((E)-3,3-dimethyl-1-(6-oxo-6-phenoxyhexyl)indolin-2-ylidene)ethenyl)cyclohex-1-en-1-yl)ethenyl)-3,3,7-trimethyl-3H-pyrrolo[2,3-b]pyridin-7-ium 2,2,2-trifluoroacetate]	0.6	–
2-((E)-2-((E)-2-chloro-3-(2-((E)-3,3-dimethyl-1-(2-((5-oxo-5-phenoxypentyl)oxy)ethyl) indolin-2-ylidene)ethenyl)cyclohex-1-en-1-yl)ethenyl)-3,3-dimethyl-1-(2-((5-oxo-5-phenoxypentyl)oxy)ethyl)-3H-indol-1-ium [Example 37B]	1.563	801 nm

— patent publication US20260191998A1, “INDOLE PHTHALOCYANINE COMPOUND, PREPARATION METHOD THEREFOR, AND USE THEREOF IN TUMOR DIAGNOSIS IMAGING” (JIANGSU YAHONG MEDITECH CO., LTD., priority 2022, published 2026)
